Assay results published in US8952024B2, “Herbicidal pyrimidone derivatives” (E I du Pont de Nemours and Company, priority 2009, dated 2015).

Experiments:
Type in all cases: in vivo
wild oat (Avena fatua) = assay: Test B pre-/postemergence plant response; conditions: for Oat, Wild plant response rating (0 to 100 scale): 0 is no effect, 13 to 15 days
In short: (§1)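 Visual injury, 0–100 scale (100 = complete control), rated against controls after 13 to 15 days in greenhouse. Pre-emergence: seeds in loam/sand soil, treated at planting. Post-emergence: 1- to 4-leaf plants (2 to 18 cm) in peat/vermiculite medium. Compounds formulated in non-phytotoxic solvent with surfactant.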

[1] = test system: morningglory (Ipomoea coccinea); assay: Test B pre-/postemergence plant response; conditions: for Morningglory plant response rating (0 to 100 scale): 0 is no effect, 13 to 15 days
In short: as §1

[2] = test system: green foxtail (Setaria viridis); assay: Test B pre-/postemergence plant response; conditions: for Foxtail, Green plant response rating (0 to 100 scale): 0 is no effect, 13 to 15 days
In short: as §1

[3] = test system: bermudagrass (Cynodon dactylon); assay: Test B pre-/postemergence plant response; conditions: for Bermudagrass plant response rating (0 to 100 scale): 0 is no effect, 13 to 15 days
In short: as §1

[4] = test system: goosegrass (Eleusine indica); assay: Test B pre-/postemergence plant response; conditions: for Goosegrass plant response rating (0 to 100 scale): 0 is no effect, 13 to 15 days
In short: as §1

[5] = test system: lambsquarters (Chenopodium album); assay: Test B pre-/postemergence plant response; conditions: for Lambsquarters plant response rating (0 to 100 scale): 0 is no effect, 13 to 15 days
In short: as §1

[6] = test system: cocklebur (Xanthium strumarium); assay: Test B pre-/postemergence plant response; conditions: for Cocklebur plant response rating (0 to 100 scale): 0 is no effect, 13 to 15 days
In short: as §1

[7] = test system: large crabgrass (Digitaria sanguinalis); assay: Test B pre-/postemergence plant response; conditions: for Crabgrass, Large plant response rating (0 to 100 scale): 0 is no effect, 13 to 15 days
In short: as §1

[8] = test system: wheat (Triticum aestivum); assay: Test B pre-/postemergence plant response; conditions: for Wheat plant response rating (0 to 100 scale): 0 is no effect, 13 to 15 days
In short: as §1

[9] = test system: yellow nutsedge (Cyperus esculentus); assay: Test B pre-/postemergence plant response; conditions: for Nutsedge, Yellow plant response rating (0 to 100 scale): 0 is no effect, 13 to 15 days
In short: as §1

[10] = test system: barnyardgrass (Echinochloa crus-galli); assay: Test B flooded paddy test; conditions: for Plant response rating, Flood, Barnyardgrass: 250 g ai/ha, flooded paddy test, visual rating on 0 to 100 scale (0 no effect, 100 complete control) after 13 to 15 days; for Plant response rating, Barnyardgrass: Flood (flooded paddy test), 13 to 15 days
In short: (§2)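 Seedlings reaching 2 leaves are flooded 3 cm deep; test material is delivered to that water, which stays at the same depth. Plants remain in a greenhouse 13–15 days and are then scored by eye versus controls from 0 to 100.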

[11] = test system: umbrella sedge (Cyperus difformis); assay: Test B flooded paddy test; conditions: for Plant response rating, Flood, Sedge, Umbrella: 250 g ai/ha, flooded paddy test, visual rating on 0 to 100 scale (0 no effect, 100 complete control) after 13 to 15 days; for Plant response rating, Sedge, Umbrella: Flood (flooded paddy test), 13 to 15 days
In short: as §2

[12] = 31 g ai/ha, postemergence, scale 0 to 100, 0 is no effect, 100 is complete control
[13] = 62 g ai/ha, postemergence, 100 is complete control
[14] = Postemergence, 125 g ai/ha, scale 0 to 100 (0 no effect, 100 complete control)
[15] = Postemergence, 250 g ai/ha, scale 0 to 100 (0 no effect, 100 complete control)
[16] = Preemergence, 31 g ai/ha, scale 0 to 100 (0 no effect, 100 complete control)
[17] = Preemergence, 62 g ai/ha, scale 0 to 100 (0 no effect, 100 complete control)
[18] = Preemergence, 125 g ai/ha, scale 0 to 100, 0 no effect, 100 complete control
[19] = Preemergence, 250 g ai/ha, 0 to 100 scale
[20] = 62 g ai/ha, scale of 0 to 100 where 0 is no effect and 100 is complete control
[21] = Postemergence, 125 g ai/ha, visual rating after 13 to 15 days, scale 0 (no effect) to 100 (complete control)
[22] = 125 g ai/ha, scale 0 to 100, 0 is no effect, 100 is complete control
[23] = Flood, 31 g ai/ha, scale 0 to 100 (0 no effect, 100 complete control)

COCCCn1c(-c2cc(F)cc(F)c2)ncc(C(=O)C2=C(O)CCCC2=O)c1=O [Compound 120]
Plant response rating, Oat, Wild (wild oat (Avena fatua); [12]): 50
Oat, Wild plant response rating (0 to 100 scale) (wild oat (Avena fatua); [13]): 80
Plant response rating, Oat, Wild (wild oat (Avena fatua); [14]): 80
Plant response rating, Oat, Wild (wild oat (Avena fatua); [15]): 95
Plant response rating, Oat, Wild (wild oat (Avena fatua); [16]): 0
Plant response rating, Oat, Wild (wild oat (Avena fatua); [17]): 10
Plant response rating, Oat, Wild (wild oat (Avena fatua); [18]): 65
Oat, Wild plant response rating (wild oat (Avena fatua); [19]): 65
Plant response rating, Morningglory [1, 12]: 15
Morningglory plant response rating (0 to 100 scale) [1, 13]: 50
Plant response rating, Morningglory [1, 14]: 80
Plant response rating, Morningglory [1, 15]: 90
Plant response rating, Morningglory [1, 16]: 0
Plant response rating, Morningglory [1, 17]: 90
Plant response rating, Morningglory [1, 18]: 90
Morningglory plant response rating [1, 19]: 100
Plant response rating, Foxtail, Green [2, 12]: 90
Foxtail, Green plant response rating (0 to 100 scale) [2, 13]: 95
Plant response rating, Foxtail, Green [2, 14]: 95
Plant response rating, Foxtail, Green [2, 15]: 100
Plant response rating, Foxtail, Green [2, 16]: 95
Plant response rating, Foxtail, Green [2, 17]: 98
Plant response rating, Foxtail, Green [2, 18]: 100
Foxtail, Green plant response rating [2, 19]: 100
Plant response rating, Bermudagrass [3, 12]: 80
Bermudagrass plant response rating (0 to 100 scale) [3, 13]: 95
Plant response rating, Bermudagrass [3, 14]: 98
Plant response rating, Bermudagrass [3, 15]: 98
Plant response rating, Bermudagrass [3, 16]: 100
Plant response rating, Bermudagrass [3, 17]: 100
Plant response rating, Bermudagrass [3, 18]: 100
Bermudagrass plant response rating ([3]; Preemergence, 250 g ai/ha, 0 to 100 scale, 0 no effect, 100 complete control): 100
Plant response rating, Goosegrass [4, 12]: 75
Goosegrass plant response rating (0 to 100 scale) [4, 13]: 80
Plant response rating, Goosegrass [4, 14]: 85
Plant response rating, Goosegrass [4, 15]: 98
Plant response rating, Goosegrass [4, 16]: 100
Plant response rating, Goosegrass [4, 17]: 100
Plant response rating, Goosegrass [4, 18]: 100
Goosegrass plant response rating [4, 19]: 100
Plant response rating, Lambsquarters [5, 12]: 80
Lambsquarters plant response rating (0 to 100 scale) [5, 13]: 85
Plant response rating, Lambsquarters [5, 14]: 98
Plant response rating, Lambsquarters [5, 15]: 100
Plant response rating, Lambsquarters [5, 16]: 100
Plant response rating, Lambsquarters [5, 17]: 100
Plant response rating, Lambsquarters [5, 18]: 100
Lambsquarters plant response rating [5, 19]: 100
Plant response rating, Cocklebur [6, 12]: 10
Cocklebur plant response rating (0 to 100 scale) [6, 13]: 15
Plant response rating, Cocklebur [6, 14]: 25
Plant response rating, Cocklebur [6, 15]: 80
Plant response rating, Cocklebur [6, 16]: 0
Plant response rating, Cocklebur [6, 17]: 35
Plant response rating, Cocklebur [6, 18]: 60
Cocklebur plant response rating [6, 19]: 98
Plant response rating, Crabgrass, Large [7, 12]: 80
Crabgrass, Large plant response rating (0 to 100 scale) [7, 13]: 85
Plant response rating, Crabgrass, Large [7, 14]: 95
Plant response rating, Crabgrass, Large [7, 15]: 98
Plant response rating, Crabgrass, Large [7, 16]: 98
Plant response rating, Crabgrass, Large [7, 17]: 100
Plant response rating, Crabgrass, Large [7, 18]: 100
Crabgrass, Large plant response rating [7, 19]: 100
Wheat plant response rating (0 to 100 scale) [8, 13]: 40
Plant response rating, Wheat [8, 14]: 60
Plant response rating, Wheat [8, 16]: 0
Plant response rating, Wheat [8, 17]: 0
Plant response rating, Wheat [8, 18]: 25
Wheat plant response rating [8, 19]: 30
Plant response rating, Nutsedge, Yellow [9, 12]: 5
Nutsedge, Yellow plant response rating (0 to 100 scale) [9, 13]: 35
Plant response rating, Nutsedge, Yellow [9, 14]: 65
Plant response rating, Nutsedge, Yellow [9, 15]: 75
Plant response rating, Nutsedge, Yellow [9, 16]: 70
Plant response rating, Nutsedge, Yellow [9, 17]: 90
Plant response rating, Nutsedge, Yellow [9, 18]: 98
Nutsedge, Yellow plant response rating [9, 19]: 98
Plant response rating, Flood, Barnyardgrass [10]: 65
Plant response rating, Barnyardgrass [10, 20]: 20
Plant response rating, Flood, Sedge, Umbrella [11]: 75
Plant response rating, Sedge, Umbrella [11, 20]: 40

Cc1ccc(-c2ncc(C(=O)C3=C(O)CCCC3=O)c(=O)n2-c2ccccc2)cc1 [Compound 80]
Plant response rating, Oat, Wild (wild oat (Avena fatua); [12]): 20
Oat, Wild plant response rating (0 to 100 scale) (wild oat (Avena fatua); [13]): 30
Plant response rating, Oat, Wild (wild oat (Avena fatua); [21]): 40
Plant response rating, Oat, Wild (wild oat (Avena fatua); [15]): 50
Plant response rating, Morningglory [1, 12]: 85
Morningglory plant response rating (0 to 100 scale) [1, 13]: 100
Plant response rating, Morningglory [1, 21]: 100
Plant response rating, Morningglory [1, 15]: 100
Plant response rating, Foxtail, Green [2, 12]: 90
Foxtail, Green plant response rating (0 to 100 scale) [2, 13]: 95
Plant response rating, Foxtail, Green [2, 21]: 95
Plant response rating, Foxtail, Green [2, 15]: 98
Plant response rating, Bermudagrass [3, 12]: 20
Bermudagrass plant response rating (0 to 100 scale) [3, 13]: 40
Plant response rating, Bermudagrass [3, 21]: 45
Plant response rating, Bermudagrass [3, 15]: 55
Plant response rating, Goosegrass [4, 12]: 70
Goosegrass plant response rating (0 to 100 scale) [4, 13]: 75
Plant response rating, Goosegrass [4, 21]: 80
Plant response rating, Goosegrass [4, 15]: 85
Plant response rating, Lambsquarters [5, 12]: 95
Lambsquarters plant response rating (0 to 100 scale) [5, 13]: 95
Plant response rating, Lambsquarters [5, 21]: 98
Plant response rating, Lambsquarters [5, 15]: 100
Plant response rating, Cocklebur [6, 12]: 0
Cocklebur plant response rating (0 to 100 scale) [6, 13]: 10
Plant response rating, Cocklebur [6, 21]: 45
Plant response rating, Cocklebur [6, 15]: 65
Plant response rating, Crabgrass, Large [7, 12]: 75
Crabgrass, Large plant response rating (0 to 100 scale) [7, 13]: 80
Plant response rating, Crabgrass, Large [7, 21]: 90
Plant response rating, Crabgrass, Large [7, 15]: 95
Plant response rating, Wheat [8, 12]: 5
Wheat plant response rating (0 to 100 scale) [8, 13]: 10
Plant response rating, Wheat [8, 21]: 20
Plant response rating, Wheat [8, 15]: 35
Plant response rating, Nutsedge, Yellow [9, 12]: 10
Nutsedge, Yellow plant response rating (0 to 100 scale) [9, 13]: 15
Plant response rating, Nutsedge, Yellow [9, 21]: 55
Plant response rating, Nutsedge, Yellow [9, 15]: 75
Plant response rating, Flood, Barnyardgrass [10]: 30
Plant response rating, Barnyardgrass [10, 20]: 20
Plant response rating, Barnyardgrass [10, 22]: 25
Barnyardgrass plant response rating [10, 23]: 15
Plant response rating, Flood, Sedge, Umbrella [11]: 40
Plant response rating, Sedge, Umbrella [11, 20]: 20
Plant response rating, Sedge, Umbrella [11, 22]: 30
Sedge, Umbrella plant response rating [11, 23]: 0
